Values quoted from earlier work, collected in publication PMC12281572.

test: FTIR, 4-fluorophenol as donor (the pK_BHX database, per the paper); settings: CCl4; 25 C

SMILES	pK_BHX (log10 Kf of the 1:1 H-bond complex with 4-fluorophenol, by FTIR) [log units]
CNc1ccc(Cl)cc1	0.05
CCCCCC#N	0.89
CN1CCCC1	2.19
CC(C)(C)Br	-0.22
CNC(C)C	2.2
C=CCNCC=C	1.7
Brc1cncnc1	0.59
O=C(N(c1ccccc1)c1ccccc1)N(c1ccccc1)c1ccccc1	1.74
FC1C2CC3CC(C2)C(F)C1C3 (stereo not shown)	0.48
CC(=O)N(C1CCCCC1)C1CCCCC1	2.41
CNC1CCCCC1	2.24
CCCCCCCCN	2.27
CC1CCCO1 (stereo not shown)	1.34
CN(C)C(=O)C12CC3CC(CC(C3)C1)C2	2.3
CN(C)C=NCC(F)(F)F	1.6
O=Cc1ccc(Cl)cc1	0.63
C1CCOC1	1.28
CCN(CC)c1ccc(C(=O)c2ccc(N(CC)CC)cc2)cc1	2.33
Cc1ccnc2c1ccc1c(C)ccnc12	3.34
CC(C)(C)C(=O)C12CC3CC(CC(C3)C1)C2	1.08
CCCN=CN(C)C	2.59
CC(C)(C)SC(C)(C)C	0.4
Clc1cccnc1	1.31
Cc1ccccc1C	-0.27
CCN(CC)CC(F)(F)F	0.23
NC12CC3CC(CC(C3)C1)C2	2.3

SMILES	pK_BHX (log10 Kf of the 1:1 H-bond complex with 4-fluorophenol, by FTIR) [log units]
C1C2CC3CC1CC(C2)C31OOC12C1CC3CC(C1)CC2C3 (stereo not shown)	0.63
C1CCCNCC1	2.24
CN(C)C=NC(=O)N(C)C	2.92
CCOC(C)=O	1.07
O=S1OCCO1	0.87
O=C1CCCCC1	1.39
COc1cccc(C)c1	0.05
CCCCN1CCCC1	2.04
CN(C)C(=O)CCl	1.74
CN1C2CCCC1CC2	2.39
CN1CC=CCC1	2.02
C1CNC1	2.59
N#CN1CCCCC1	1.58
CC(=O)N1CCOCC1	2.16
CO	0.82
IC1CCCCC1	-0.32
CC(C)(C)c1cc(C(C)(C)C)cc(C(C)(C)C)c1	-0.23
Cc1ccc(C)cc1	-0.29
COc1ccc(C(C)=O)cc1	1.33
c1ccc2scnc2c1	1.29
CN(C)c1ccncc1	2.8
CCSSCC	-0.4
CC(C)(C)C#N	0.99
C1COCO1	0.45
C#CCCCC	-0.22
O=C(C(=O)c1ccccc1)c1ccccc1	0.44

SMILES	pK_BHX (log10 Kf of the 1:1 H-bond complex with 4-fluorophenol, by FTIR) [log units]
Fc1cccnc1	1.35
C=CCN=CN(C)C	2.48
COC(OC)(OC)OC	0.26
Cc1cc(=O)cc(C)o1	2.5
CN(C)C=CC#N	1.7
CCCCC(=O)CCCC	1.21
OC1CCCCC1	1.14
c1ccc(Nc2ccccc2)cc1	-0.3
CS(=O)c1ccccc1 (stereo not shown)	2.24
Cc1cc(C)c(C)c(C)c1C	-0.07
NCC(F)(F)F	0.71
CN(C)Cc1ccccc1	1.59
CN(C)C	2.13
C=COCC	0.1
CCN(CC)C(C)=O	2.47
CN(C)C=NC1CCCCC1	2.59
FC1CCCCC1	0.09
S=C1CCCCCN1	1.6
Cc1cccc(C)c1	-0.28
O=C1CCCC1	1.27
[O-][n+]1ccc(Cl)cc1	2.44
CN(C)C=NC#N	2.09
CN1CCN(C)C1=O	2.46
O=C1CCC1	1.0
CCCCSC	0.17

Now from value to molecule:

pK_BHX (log10 Kf of the 1:1 H-bond complex with 4-fluorophenol, by FTIR) [log units]	SMILES
1.65	C=Cc1ccccn1
2.36	Cc1ccc(CN=CN(C)C)cc1
1.05	CC(=Nc1cccc(Cl)c1)N(C)c1cccc(Cl)c1
1.29	CC(C)(C)N=Cc1ccccc1
2.03	CNC(=O)c1ccccc1
0.83	N#Cc1ccc(-c2ccccc2)cc1
1.52	FC(F)(F)c1cccc(C2=NCCC2)c1
1.19	CC(=Nc1ccc(Br)cc1)N(C)c1ccc(Br)cc1
2.11	CNc1ccccn1
2.48	COc1ccccc1C(=O)N(C)C
1.05	O=[N+]([O-])c1cc[n+]([O-])cc1
2.3	O=c1c(-c2ccccc2)c1-c1ccccc1
2.1	CN(C)C=NCc1cccc(Cl)c1
0.8	COc1cccc(C#N)c1
1.83	CNC(=Nc1ccccc1)c1ccccc1
1.44	CC(=Nc1ccccc1)N(C)c1cccc(Cl)c1
1.13	CCOC(=O)c1ccc(OC)cc1
1.24	CC(=Nc1cccc(Cl)c1)N(C)c1ccccc1
-0.37	COc1ccccc1C

pK_BHX (log10 Kf of the 1:1 H-bond complex with 4-fluorophenol, by FTIR) [log units]	SMILES
1.97	O=c1cccccc1
1.33	CCN(CC)c1ccc(N=O)cc1
2.01	CC(=Nc1ccc(C)cc1)Nc1ccc(C)cc1
1.25	Fc1ccc(N=C(Nc2ccccc2)c2ccccc2)cc1
1.24	CC(=Nc1cccc(Br)c1)Nc1ccccc1
2.92	Cc1ccc[n+]([O-])c1
1.71	CC(=O)c1ccc(N2CCCCC2)cc1
-0.37	c1ccc(C2CC2)cc1
1.4	Cc1cccc(NC(=Nc2ccccc2)c2ccccc2)c1
2.19	CC(=O)N(C)c1ccccc1
-0.02	CSCc1ccccc1
1.49	CC(=NC(=S)SCc1ccccc1)N(C)C
0.76	CCOC(=O)c1ccc(C(=O)OCC)cc1
1.98	c1ccc(C2=NCCC2)cc1
1.43	CN(C)C=Nc1ccc(C(F)(F)F)cc1
1.05	CCOC(=O)c1ccc(C)cc1
1.21	CC(=O)c1ccc(C(C)C)cc1
1.16	CN(C)Cc1cccc(C(F)(F)F)c1
1.94	CC(=O)N(c1ccccc1)c1ccccc1
